The supplement of paper PMC10307832

Experiments:
Assay in all cases: relative viability (nuclei count vs DMSO), 5 days (fraction); higher = more cells survive
[1] = test system: CAL-12T
Summary of the method: (§1)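 Lung cancer cell lines, seeded in 1536-well plates, were treated the following day by pin tool with a single drug or with five library-drug doses (not always all listed) in √10 steps on top of a fixed anchor-drug dose. Cells were fixed and nuclei stained in one step after 5 days, and nuclei were counted. Relative viability is the nuclei count for treated wells divided by that for vehicle wells, reported as medians of duplicate plates.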

[2] = test system: COR-L 105
Summary of the method: as §1

[3] = test system: NCI-H1915
Summary of the method: as §1

[4] = test system: HCC-827
Summary of the method: as §1

[5] = test system: HCC-366
Summary of the method: as §1

[6] = test system: NCI-H1755
Summary of the method: as §1

[7] = test system: NCI-H1437
Summary of the method: as §1

[8] = test system: NCI-H460
Summary of the method: as §1

[9] = test system: HOP-62
Summary of the method: as §1

[10] = test system: NCI-H23
Summary of the method: as §1

[11] = test system: SK-LU-1
Summary of the method: as §1

[12] = test system: NCI-H2009
Summary of the method: as §1

[13] = test system: NCI-H1355
Summary of the method: as §1

[14] = test system: A-427
Summary of the method: as §1

[15] = test system: NCI-H2228
Summary of the method: as §1

[16] = test system: NCI-H1792
Summary of the method: as §1

[17] = test system: NCI-H727
Summary of the method: as §1

[18] = test system: EMC-BAC-2
Summary of the method: as §1

[19] = test system: HARA
Summary of the method: as §1

[20] = test system: NCI-H1975
Summary of the method: as §1

[21] = test system: NCI-H1395
Summary of the method: as §1

[22] = test system: SW 1573
Summary of the method: as §1

CC(C)Oc1cc(Nc2nc(N[C@@H](C)c3ccc(F)cn3)ncc2Cl)n[nH]1 [AZ23] + CS(=O)(=O)CCNCc1ccc(-c2ccc3ncnc(Nc4ccc(OCc5cccc(F)c5)c(Cl)c4)c3c2)o1 [Lapatinib] (partner 2 µM)
relative viability ([1]; first compound 0.03162 µM): 0.701 | relative viability ([1]; first compound 0.3162 µM): 0.647 | relative viability ([2]; first compound 0.01 µM): 0.35 | relative viability ([2]; first compound 0.03162 µM): 0.382 | relative viability ([2]; first compound 0.3162 µM): 0.373 | relative viability ([3]; first compound 0.01 µM): 1.12 | relative viability ([3]; first compound 0.03162 µM): 0.972 | relative viability ([3]; first compound 0.3162 µM): 1.01 | relative viability ([4]; first compound 0.01 µM): 0.205 | relative viability ([4]; first compound 0.03162 µM): 0.172 | relative viability ([4]; first compound 0.3162 µM): 0.21 | relative viability ([5]; first compound 0.01 µM): 0.905 | relative viability ([5]; first compound 0.03162 µM): 1.52 | relative viability ([5]; first compound 0.3162 µM): 1.11 | relative viability ([6]; first compound 0.01 µM): 1.28 | relative viability ([6]; first compound 0.03162 µM): 1.16 | relative viability ([6]; first compound 0.3162 µM): 1.05 | relative viability ([7]; first compound 0.01 µM): 0.729 | relative viability ([7]; first compound 0.03162 µM): 0.975 | relative viability ([7]; first compound 0.3162 µM): 0.957 | relative viability ([8]; first compound 0.01 µM): 0.519 | relative viability ([8]; first compound 0.03162 µM): 1.1 | relative viability ([8]; first compound 0.3162 µM): 1.5 | relative viability ([9]; first compound 0.01 µM): 1.14 | relative viability ([9]; first compound 0.03162 µM): 0.985 | relative viability ([9]; first compound 0.3162 µM): 0.966 | relative viability ([10]; first compound 0.03162 µM): 1.23 | relative viability ([10]; first compound 0.3162 µM): 1.07 | relative viability ([11]; first compound 0.01 µM): 0.929 | relative viability ([11]; first compound 0.03162 µM): 1.06 | relative viability ([11]; first compound 0.3162 µM): 1.06 | relative viability ([12]; first compound 0.01 µM): 0.97 | relative viability ([12]; first compound 0.03162 µM): 0.997 | relative viability ([12]; first compound 0.3162 µM): 0.918 | relative viability ([13]; first compound 0.01 µM): 1.16 | relative viability ([13]; first compound 0.03162 µM): 1.07 | relative viability ([13]; first compound 0.3162 µM): 0.939 | relative viability ([14]; first compound 0.01 µM): 1.24 | relative viability ([14]; first compound 0.03162 µM): 1.02 | relative viability ([14]; first compound 0.3162 µM): 1.03 | relative viability ([15]; first compound 0.01 µM): 1.51 | relative viability ([15]; first compound 0.03162 µM): 0.867 | relative viability ([15]; first compound 0.3162 µM): 0.992 | relative viability ([16]; first compound 0.01 µM): 1.17 | relative viability ([16]; first compound 0.03162 µM): 1.13 | relative viability ([16]; first compound 0.3162 µM): 0.995 | relative viability ([17]; first compound 0.01 µM): 0.788 | relative viability ([17]; first compound 0.03162 µM): 0.945 | relative viability ([17]; first compound 0.3162 µM): 0.751 | relative viability ([18]; first compound 0.01 µM): 0.968 | relative viability ([18]; first compound 0.03162 µM): 0.981 | relative viability ([18]; first compound 0.3162 µM): 0.922 | relative viability ([19]; first compound 0.01 µM): 0.862 | relative viability ([19]; first compound 0.03162 µM): 0.708 | relative viability ([19]; first compound 0.3162 µM): 0.584 | relative viability ([20]; first compound 0.01 µM): 1.27 | relative viability ([20]; first compound 0.03162 µM): 0.961 | relative viability ([20]; first compound 0.3162 µM): 0.862 | relative viability ([21]; first compound 0.03162 µM): 0.943 | relative viability ([21]; first compound 0.3162 µM): 1.03 | relative viability ([22]; first compound 0.01 µM): 1.21 | relative viability ([22]; first compound 0.03162 µM): 1.11 | relative viability ([22]; first compound 0.3162 µM): 0.939

COc1cc(N2CCC(C(N)=O)CC2)ccc1Nc1nc(N)c(Cl)c(Nc2ccccc2S(=O)(=O)C(C)C)n1 [HG-5-88-01] + CC1(C)CCC(c2ccc(Cl)cc2)=C(CN2CCN(c3ccc(C(=O)NS(=O)(=O)c4ccc(N[C@H](CCN5CCOCC5)CSc5ccccc5)c(S(=O)(=O)C(F)(F)F)c4)cc3)CC2)C1 [Navitoclax] (partner 0.5 µM)
relative viability ([1]; first compound 0.04 µM): 1.26 | relative viability ([1]; first compound 0.1265 µM): 1.15 | relative viability ([1]; first compound 0.4 µM): 1.18 | relative viability ([1]; first compound 1.265 µM): 1.14 | relative viability ([1]; first compound 4 µM): 1.02 | relative viability ([2]; first compound 0.04 µM): 0.644 | relative viability ([2]; first compound 0.1265 µM): 0.833 | relative viability ([2]; first compound 0.4 µM): 0.838 | relative viability ([2]; first compound 1.265 µM): 0.645 | relative viability ([2]; first compound 4 µM): 0.809 | relative viability ([3]; first compound 0.04 µM): 0.771 | relative viability ([3]; first compound 0.1265 µM): 0.783 | relative viability ([3]; first compound 0.4 µM): 0.813 | relative viability ([3]; first compound 1.265 µM): 0.845 | relative viability ([3]; first compound 4 µM): 0.669 | relative viability ([4]; first compound 0.04 µM): 0.997 | relative viability ([4]; first compound 0.1265 µM): 1.04 | relative viability ([4]; first compound 0.4 µM): 1.03 | relative viability ([4]; first compound 1.265 µM): 1.02 | relative viability ([4]; first compound 4 µM): 0.723 | relative viability ([5]; first compound 0.04 µM): 0.952 | relative viability ([5]; first compound 0.1265 µM): 1.04 | relative viability ([5]; first compound 0.4 µM): 0.79 | relative viability ([5]; first compound 1.265 µM): 1.02 | relative viability ([5]; first compound 4 µM): 1.29 | relative viability ([6]; first compound 0.1265 µM): 0.991 | relative viability ([6]; first compound 0.4 µM): 1.01 | relative viability ([6]; first compound 1.265 µM): 1.01 | relative viability ([6]; first compound 4 µM): 1.01 | relative viability ([7]; first compound 0.04 µM): 1.1 | relative viability ([7]; first compound 0.1265 µM): 1.11 | relative viability ([7]; first compound 0.4 µM): 1.05 | relative viability ([7]; first compound 1.265 µM): 1.04 | relative viability ([7]; first compound 4 µM): 1.02 | relative viability ([8]; first compound 0.04 µM): 0.975 | relative viability ([8]; first compound 0.1265 µM): 1.12 | relative viability ([8]; first compound 0.4 µM): 0.901 | relative viability ([8]; first compound 1.265 µM): 1.15 | relative viability ([8]; first compound 4 µM): 1.06 | relative viability ([9]; first compound 0.04 µM): 0.987 | relative viability ([9]; first compound 0.1265 µM): 0.948 | relative viability ([9]; first compound 0.4 µM): 0.986 | relative viability ([9]; first compound 1.265 µM): 0.919 | relative viability ([9]; first compound 4 µM): 1.01 | relative viability ([10]; first compound 0.04 µM): 0.945 | relative viability ([10]; first compound 0.1265 µM): 0.932 | relative viability ([10]; first compound 0.4 µM): 0.809 | relative viability ([10]; first compound 1.265 µM): 0.815 | relative viability ([10]; first compound 4 µM): 0.659 | relative viability ([11]; first compound 0.04 µM): 0.997 | relative viability ([11]; first compound 0.1265 µM): 0.99 | relative viability ([11]; first compound 0.4 µM): 0.791 | relative viability ([11]; first compound 1.265 µM): 0.98 | relative viability ([11]; first compound 4 µM): 0.791 | relative viability ([12]; first compound 0.04 µM): 1.2 | relative viability ([12]; first compound 0.1265 µM): 1.32 | relative viability ([12]; first compound 0.4 µM): 1.15 | relative viability ([12]; first compound 1.265 µM): 1.06 | relative viability ([12]; first compound 4 µM): 1.15 | relative viability ([13]; first compound 0.04 µM): 1.01 | relative viability ([13]; first compound 0.1265 µM): 1.08 | relative viability ([13]; first compound 0.4 µM): 0.959 | relative viability ([13]; first compound 1.265 µM): 0.789 | relative viability ([13]; first compound 4 µM): 0.841 | relative viability ([14]; first compound 0.04 µM): 0.97 | relative viability ([14]; first compound 0.1265 µM): 1.04 | relative viability ([14]; first compound 0.4 µM): 0.956 | relative viability ([14]; first compound 1.265 µM): 1.04 | relative viability ([14]; first compound 4 µM): 0.835 | relative viability ([15]; first compound 0.04 µM): 0.65 | relative viability ([15]; first compound 0.1265 µM): 0.295 | relative viability ([15]; first compound 0.4 µM): 0.485 | relative viability ([15]; first compound 1.265 µM): 0.417 | relative viability ([15]; first compound 4 µM): 0.27 | relative viability ([16]; first compound 0.04 µM): 0.685 | relative viability ([16]; first compound 0.1265 µM): 0.614 | relative viability ([16]; first compound 0.4 µM): 0.578 | relative viability ([16]; first compound 1.265 µM): 0.685 | relative viability ([16]; first compound 4 µM): 0.738 | relative viability ([17]; first compound 0.04 µM): 0.532 | relative viability ([17]; first compound 0.1265 µM): 0.416 | relative viability ([17]; first compound 0.4 µM): 0.469 | relative viability ([17]; first compound 1.265 µM): 0.224 | relative viability ([17]; first compound 4 µM): 0.0929 | relative viability ([18]; first compound 0.04 µM): 1.11 | relative viability ([18]; first compound 0.1265 µM): 1.23 | relative viability ([18]; first compound 0.4 µM): 1.12 | relative viability ([18]; first compound 1.265 µM): 1.05 | relative viability ([18]; first compound 4 µM): 1.22 | relative viability ([19]; first compound 0.04 µM): 1.16 | relative viability ([19]; first compound 0.1265 µM): 1.14 | relative viability ([19]; first compound 0.4 µM): 1.13 | relative viability ([19]; first compound 1.265 µM): 1.19 | relative viability ([19]; first compound 4 µM): 1.18 | relative viability ([20]; first compound 0.04 µM): 1.13 | relative viability ([20]; first compound 0.1265 µM): 1.15 | relative viability ([20]; first compound 0.4 µM): 1.09 | relative viability ([20]; first compound 1.265 µM): 0.858 | relative viability ([20]; first compound 4 µM): 0.352 | relative viability ([21]; first compound 0.04 µM): 1.08 | relative viability ([21]; first compound 0.1265 µM): 1.18 | relative viability ([21]; first compound 0.4 µM): 1.25 | relative viability ([21]; first compound 1.265 µM): 1.03 | relative viability ([21]; first compound 4 µM): 1.09 | relative viability ([22]; first compound 0.04 µM): 0.952 | relative viability ([22]; first compound 0.1265 µM): 1.05 | relative viability ([22]; first compound 0.4 µM): 0.9 | relative viability ([22]; first compound 1.265 µM): 0.996 | relative viability ([22]; first compound 4 µM): 0.863
